Measurements reported in patent US8357659B2, “Method of treating pain or itching with APETx2 peptide toxin” (priority 2008, dated 2013).

Assays:
[1] = test system: cutaneous pain induced by moderate acidification; experiment: Nociceptive behaviour in rats after subcutaneous injection of moderately acidic solutions; assay type: in vivo, rat
Procedure: Adult (7-8 weeks' old) male Wistar rats (Charles River, France) were placed in plastic cages with a nyctohemeral period of 12 h (with light between 8 a.m. and 8 p.m.) and with free access to food and water. The rats were left to acclimatize for at least one week before the experiments. For the behavioural experiments, the rats were placed in a transparent observation chamber where they were acclimatized for 20-30 minutes. They were subsequently immobilised while 20 μl of saline solution (0.9% or 2% of NaCl+20 mM of HEPES, […] or 60 nM of PcTx1 toxin), was administered subcutaneously to the dorsal side of the right hind paw using a 30G needle connected to a 100 μl Hamilton syringe. The nociceptive behaviour (i.e. the number of hind leg quiverings) was recorded over a 5-minute period, starting immediately after the injection ([ref. 59]).

[2] = test system: thermal hyperalgesia induced by CFA; experiment: Inflammation-induced (CFA) thermal hyperalgesia in rats, hotplate at 50° C.; assay type: in vivo, rat
Procedure: Sensitivity to heat of adult male Wistar rats (Charles River, France) was tested by measuring the time taken by the animal to retract one of its hind paws when placed on a hotplate at 50° C. (Bioseb, France), before and after induction of inflammation by subcutaneous injection of a solution of Freund's complete adjuvant (CFA, Sigma-Aldrich, France). The rats were acclimatised to the experimentation room for at least 30 minutes and each measurement was performed in duplicate. An initial measurement was performed before induction of inflammation. The rats were subsequently anaesthetised (isofluorane) while 150 μl of CFA diluted 1:1 with a saline solution (0.9% NaCl) containing either toxins (PcTx1 or APETx2, 120 nM and 20 μM, respectively) or the vehicle was injected (26G needle mounted on a 1 ml syringe) subcutaneously into the plantar side of one of the hind paws. The time taken by the animal to lift the injected hind paw was subsequently measured at 50° C., 2, 4 and 24 hours after the injection of CFA.
(§1) ASIC3 channel-specific iRNA (no. 1121; CTACACGCTATGCCAAGGA, SEQ ID NO: 1) and its control (no. 1121S; GCTCACACTACGCAGAGAT, SEQ ID NO: 2) were designed in the laboratory and were synthesised by MWG Biotech Company (Germany). The ASIC3-specific iRNA was validated by quantification of the messenger RNA levels by quantitative RT-PCR for each ASIC channel and for the TRPV1 channel, following intrathecal injections into the lumbar region of the spinal cord of rats, at a rate of one injection per day for 3 consecutive days, before the animal was sacrificed. The same procedure was followed before induction of inflammation by CFA. Each injection was 10 μl in volume, containing 2 μg of iRNA mixed with the transfection agent i-Fect (Neuromics) at a ratio of 1 to 4.

[3] = test system: ASIC type current of cutaneous neurons of the spinal ganglia; experiment: Whole cell patch clamp of native ASIC currents in cutaneous neurons of the spinal ganglia; assay type: cell-based, rat
Procedure: The neurons of the dorsal root ganglion (spinal ganglia or DRG) innervating the skin were labelled by subcutaneous injections of 5×1 μl of Dil fluorescent dye (5% DMSO, Molecular Probes) in the dorsal side of the rats' hind paws. The dye was injected two weeks before the rats were sacrificed in order to prepare a primary culture of dorsal root ganglion.
The lumbar dorsal root ganglia L3-L6 of Wistar rats (8-11 weeks) were dissected bilaterally and separated enzymatically with 0.1% collagenase. The cells were subsequently plated on 35 mm Petri dishes covered with collagen and cultured at 37° C. (95% air/5% CO2) in DMEM medium containing 5% of foetal calf serum. The electrophysiological experiments were performed 1 to 8 days after seeding.
(§2) The whole cell configuration of the patch clamp method was used ([ref. 48]) in order to measure the membrane currents (imposed voltage) or the membrane potentials (imposed current). The recordings were performed at ambient temperature using an RK-400 amplifier (Bio-Logic Science Instruments) with a 3 kHz low-pass filter (Krohn-Hite). The data were sampled at 10 kHz, digitised using a Digidata 1322A A-D/D-A converter (Axon Instruments) and recorded on a hard disk using pClamp software (version 9.2.0.11, Axon Instruments). The recording probes (1-4 MOhms) contained (in mM): 135 KCl, 2.5 Na2-ATP, 2 MgCl2, 2.1 CaCl2, 5 EGTA, 10 HEPES (pH 7.25 with KOH). Various different buffers and drugs of interest were added to the transfected cells considered individually using an internally developed microinfusion system controlled by microelectrovalves (Sirai, Italy) allowing rapid changes of solution. The control bath solution contained (in mM): 145 NaCl, 5 KCl, 2 MgCl2, 2 CaCl2, 10 HEPES (pH 7.4 with NaOH). The MES medium was used instead of the HEPES medium in order to buffer the solution at a pH ranging from 6 to 5, and the ASIC currents were induced by rapid changes of a control solution at pH 7.4 to an acid test solution using the microinfusion system. For the experiments conducted on the DRG neurons, glucose (10 mM) was added to the control bath solution. Hypertonic conditions were obtained by adding mannitol or sucrose to the external bath solutions, as indicated in the text.

[4] = target: T1, ASIC3 (rat clone) in F-11 cells (Rattus norvegicus, UniProt O35240); experiment: Whole cell patch clamp of recombinant ASIC3 in transfected F-11 cells; assay type: cell-based
T1 construct: expressed in transfected cells; host or cells: F-11 cells, vector pCI-ASIC3r co-transfected with pIRES2-EGFP
T1 sequence (O35240 1-533): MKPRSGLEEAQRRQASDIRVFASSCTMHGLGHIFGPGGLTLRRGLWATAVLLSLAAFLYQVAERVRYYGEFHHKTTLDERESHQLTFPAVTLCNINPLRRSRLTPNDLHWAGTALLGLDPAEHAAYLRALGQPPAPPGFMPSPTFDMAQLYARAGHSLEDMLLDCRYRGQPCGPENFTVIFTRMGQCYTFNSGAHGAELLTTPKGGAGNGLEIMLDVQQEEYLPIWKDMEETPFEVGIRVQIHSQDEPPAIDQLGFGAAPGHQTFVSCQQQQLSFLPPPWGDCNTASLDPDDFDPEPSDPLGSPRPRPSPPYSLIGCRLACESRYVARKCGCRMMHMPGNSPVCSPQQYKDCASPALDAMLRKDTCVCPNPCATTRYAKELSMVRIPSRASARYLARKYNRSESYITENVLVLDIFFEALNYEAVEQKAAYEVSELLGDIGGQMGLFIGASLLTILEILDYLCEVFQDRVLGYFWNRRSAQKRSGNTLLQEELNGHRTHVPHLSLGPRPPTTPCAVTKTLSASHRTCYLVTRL
Procedure: (§3) F-11 cells (refs. 44, 45, 46, 47]) were cultured in 5% of CO2 at a density of 50,000 cells per 35 mm Petri dish. The culture medium contained HAM F-12 medium (Invitrogen) supplemented with 15% foetal bovine serum (ICN Biomedicals), 1×HAT (sodium hypoxanthine, aminopterine and thymidine), 200 μg/ml of allo-4-hydroxy-L-proline (Sigma-Aldrich) and 1% antibiotics. One day after seeding, the cells were transfected with ASIC1a or ASIC3 DNAc (rat clones) using Lipofectamine™ (Invitrogen) according to the manufacturer's instructions using the vectors pCI-ASIC1ar+pIRES2-EGFP (ratio 1:2) or pCI-ASIC3r+pIRES2-EGFP (ratio 1:10) ([ref. 36]), quoted above). For the experiments concerning the human ASIC3 clone (refer to experiments on the effects of the APETx2 toxin on the human form of the ASIC3 channel), the cells were transfected with the DNAc of human ASIC3 using the transfection agent JetPEI (Polypus Transfection) according to the manufacturer's instructions with the aid of the vector pASIC3h-IRES-EGFP. The cells were used for the patch clamp experiments (an electrophysiological method for recording ionic currents travelling through cell membranes) 2 to 4 days after transfection.
as §2

[5] = target: T2, ASIC1a (rat clone) in F-11 cells (Rattus norvegicus, UniProt P55926); experiment: Whole cell patch clamp of recombinant ASIC1a in transfected F-11 cells; assay type: cell-based
T2 construct: expressed in transfected cells; host or cells: F-11 cells, vector pCI-ASIC1ar co-transfected with pIRES2-EGFP
T2 sequence (P55926 1-526): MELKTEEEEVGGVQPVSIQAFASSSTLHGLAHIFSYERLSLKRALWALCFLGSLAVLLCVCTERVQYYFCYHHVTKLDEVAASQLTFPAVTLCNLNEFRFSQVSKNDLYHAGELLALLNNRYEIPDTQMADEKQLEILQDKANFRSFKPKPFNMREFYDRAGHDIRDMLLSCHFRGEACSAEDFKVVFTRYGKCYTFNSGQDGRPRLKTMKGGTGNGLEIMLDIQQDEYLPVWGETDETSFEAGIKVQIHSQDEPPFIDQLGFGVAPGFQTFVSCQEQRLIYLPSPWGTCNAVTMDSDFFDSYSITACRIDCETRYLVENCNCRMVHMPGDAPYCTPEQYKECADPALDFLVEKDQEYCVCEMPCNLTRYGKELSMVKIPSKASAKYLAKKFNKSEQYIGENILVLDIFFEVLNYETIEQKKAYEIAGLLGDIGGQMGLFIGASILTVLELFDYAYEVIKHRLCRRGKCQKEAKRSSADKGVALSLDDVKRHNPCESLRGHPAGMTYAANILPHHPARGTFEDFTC
Procedure: as §3
The whole cell configuration of the patch clamp method was used ([ref. 48]) in order to measure the membrane currents (imposed voltage) or the membrane potentials (imposed current). The recordings were performed at ambient temperature using an RK-400 amplifier (Bio-Logic Science Instruments) with a 3 kHz low-pass filter (Krohn-Hite). The data were sampled at 10 kHz, digitised using a Digidata 1322A A-D/D-A converter (Axon Instruments) and recorded on a hard disk using pClamp software (version 9.2.0.11, Axon Instruments). The recording probes (1-4 MOhms) contained (in mM): 135 KCl, 2.5 Na2-ATP, 2 MgCl2, 2.1 CaCl2, 5 EGTA, 10 HEPES (pH 7.25 with KOH). Various different buffers and drugs of interest were added to the transfected cells considered individually using an internally developed microinfusion system controlled by microelectrovalves (Sirai, Italy) allowing rapid changes of solution. […]

ASIC3 messenger RNA = experiment: Quantitative RT-PCR of channel messenger RNA levels in spinal ganglia after intrathecal iRNA; assay type: in vivo, rat; settings: 2 μg per injection, one per day for 3 days, other ASIC and TRPV1 channels not reduced
Source text: as §1

In the case of “PcTx1: animal peptide toxin, selective inhibitor of the homomer channels ASIC1a (EDCIPKWKGCVNRHGDCCEGLECWKRRRSFEVCVPKTPKT)”, the “behaviour in response to acid pain with inflammatory signals” value ([1]; pH 6.9 + 2% NaCl + AA, 10 μM APETx2 or 60 nM PcTx1 in injected solution, FIG. 5A) is reported as “devoid of any significant effect”, the “development of thermal hyperalgesia” value ([2]; toxin concomitantly injected with CFA (APETx2 20 μM, PcTx1 120 nM), four hours after CFA) is reported as “devoid of any significant effect” and the “inhibition by the toxin of the ASIC type current induced by pH 6.6” value ([3]; in 4.7% (2/43) of neurons, ASIC1a homomer current) is reported as over 90%. The “inhibition by the toxin of the ASIC type current induced by pH 6.6” value ([3]; in 23.3% (10/43) of neurons, ASIC3 type currents) was under 10%.
In the case of `CCCCC/C=C\C/C=C\C/C=C\C/C=C\CCCC(=O)O` [arachidonic acid], the “non-inactivating ASIC3 window current” value ([4]; FIG. 4D) is reported as “markedly increased”, the “increase of the ASIC3 current” value ([4]; activated by pH 6.6, n=7, P=0.45) is reported as 40±22% and the “increase of the ASIC3 current” value ([4]; activated by pH 7.0, n=9) is reported as 493±84%. The “increase of the ASIC3 current” value ([4]; activated by pH 7.2, n=23) was 547±103%, the quivering score ([1]; co-injected 2% NaCl (~600 mosmol.kg^−1) and 10 mM AA at pH 6.9, subcutaneous, hind paw, 5-minute period, n=25, versus 11.1±2.54 at pH 6.9 alone) was 20.42±2.53 and the “increase of the ASIC1a current” value ([5]; pH 6.6, n=2) was 21±15%. For the same compound, the “increase of the ASIC1a current” value ([5]; pH 7.0, n=5, P=0.06) was 183±54%, the “effect on ASIC1a current” value ([5]; pH 7.2) was “does not have any effect” and the “excitability of the cutaneous neurons (triggering of the action potential)” value ([3]; FIG. 2C) was “increased excitability”. The “increase of the ASIC current induced by native pH 7.0” value ([3]; pH 7.0, n=6, P=0.06) was 172±65%.
With “ASIC3 channel-specific iRNA: interfering RNA directed against ASIC3 messenger RNA, CTACACGCTATGCCAAGGA, SEQ ID NO: 1 (listed as DNA, chemistry not given here)” the “development of inflammatory thermal hyperalgesia” value ([2]; intrathecal iRNA during the 3 days preceding CFA, versus random sequence control iRNA) was “do not develop any inflammatory thermal hyperalgesia” and the “expression of the ASIC3 channels in the sensory neurons” value (ASIC3 messenger RNA) was “marked and exclusive reduction”.
For `OC[C@@H](O)[C@@H](O)[C@H](O)[C@H](O)CO` [mannitol], the “increase of the ASIC3 current by hyperosmolarity” value ([4]; 600 mosmol.kg^−1 with mannitol, activated by pH 7.2, n=20) was 148±20%.
